Measurements reported in US9150489B2, “1-(2-fluorobiphenyl-4-yl)-alkyl carboxylic acid derivatives for the therapy of transthyretin amyloidosis” (CHIESI FARMACEUTICI S.p.A., priority 2010, dated 2015).

Legend:
[1] = target: T1, wild-type human transthyretin (TTR) (Homo sapiens, UniProt P02766); details: cited from earlier work
T1 construct: made in house; host or cells: E. coli

[2] = target: T1, wild-type human transthyretin (TTR); experiment: Competitive binding to wild-type human TTR by fluorometric techniques; details: 20° C.; for emission peak of TTR-bound ANS in the presence of the compound / emission peak of TTR-bound tafamidis in the presence of the compound / emission peak of TTR-bound trans-resveratrol in the presence of the compound: 10 μM compound; for emission peak of TTR-bound ANS in the presence of the compound: 10 μM ANS, excitation 360 nm; for emission peak of TTR-bound ANS in the presence of the compound / emission peak of TTR-bound trans-resveratrol in the presence of the compound: 5 μM TTR; for emission peak of TTR-bound tafamidis in the presence of the compound: 10 μM tafamidis, 10 μM TTR; for emission peak of TTR-bound tafamidis in the presence of the compound / emission peak of TTR-bound trans-resveratrol in the presence of the compound: excitation 320 nm; for emission peak of TTR-bound trans-resveratrol in the presence of the compound: 10 μM trans-resveratrol; for relative binding affinity to TTR (competitive binding assays taken together): 50 mM Na phosphate buffer, pH 7.2, 150 mM NaCl
[3] = target: T2, human wild-type TTR (Homo sapiens, UniProt P02766); experiment: In vitro fibrillogenesis by wild-type TTR at acidic pH (turbidity at 400 nm); type: biochemical; details: 3.6 μM TTR, 10.8 μM inhibitor, pH 4.4, 37° C., average of two measurements; for inhibition at 10.8 µM: read-out: inhibitory effect on wild-type TTR fibrillogenesis
T2 construct: made in house; host or cells: E. coli
Excerpt: (§1) The aim of this study was to evaluate the inhibitory effect of the same representative compounds of the inventions tested in Example 1 in vitro fibrillogenesis by human wild-type TTR and two major amyloidogenic variants (V30M and V 122I) at moderately acidic pH, in comparison to reference compounds. To highlight the inhibitory effect of CHF 5074 and CHF4795 versus diflunisal and tafamidis on in vitro fibrillogenesis by wild-type, V30M and V122I TTR at moderately acid pH, we followed the kinetics of fibril formation by these proteins, by monitoring the increase in turbidity at 400 nm as reported in Johnson et al., 2008, J. Med. Chem., 51:260 (which is incorporated herein by reference), upon incubation with TTR. The final concentration of TTR was of 3.6 μM, which is close to its physiological plasma concentration, with fibrillogenesis inhibitors at a final concentration of 10.8 μM. According to the procedure adopted for other inhibitors of fibrillogenesis (Johnson et al., 2008, J. Med. Chem., 51:260), TTR was incubated with each inhibitor at neutral pH (10 mM Na phosphate buffer, pH 7.2, 100 mM KCl, 1 mM EDTA) for 30 minutes at ambient temperature, prior to the incubation of the protein at acidic pH (200 mM Na Acetate buffer, pH 4.4, 100 mM KCl, 1 mM EDTA) at 37° C. in order to promote fibrillogenesis. Inhibitory effect data represent the average of two independent measurements for each compound.

[4] = target: T3, V30M TTR (Homo sapiens, UniProt P02766, V50M); experiment: In vitro fibrillogenesis by V30M TTR at acidic pH (turbidity at 400 nm); type: biochemical; details: 3.6 μM TTR, 10.8 μM inhibitor, pH 4.4, 37° C., average of two measurements
T3 construct: made in house; host or cells: E. coli
Excerpt: as §1

[5] = target: T4, V 122I TTR (Homo sapiens, UniProt P02766, V142I); experiment: In vitro fibrillogenesis by V122I TTR at acidic pH (turbidity at 400 nm); type: biochemical; details: 3.6 μM TTR, 10.8 μM inhibitor, pH 4.4, 37° C., average of two measurements; for inhibition at 10.8 µM: read-out: inhibitory effect on V 122I TTR fibrillogenesis
T4 construct: made in house; host or cells: E. coli
Excerpt: as §1

Compound	binding affinity for TTR (known property of the fluorescent probes) [1]	emission peak of TTR-bound ANS in the presence of the compound ([2]; pH 7.2)	emission peak of TTR-bound tafamidis in the presence of the compound ([2]; pH 7.2)	emission peak of TTR-bound trans-resveratrol in the presence of the compound ([2]; pH 7.2)	relative binding affinity to TTR (competitive binding assays taken together) [2]	inhibition at 10.8 µM [3] [%]	inhibitory effect on V30M TTR fibrillogenesis [4]	inhibition at 10.8 µM [5] [%]	other results
O=S(=O)(O)c1cccc2cccc(Nc3ccccc3)c12 [ANS, 8-anilino-1-naphthalene sulfonate]	relatively low binding affinity	–	–	–	–	–	–	–	–
O=C(O)C1(c2ccc(-c3ccc(Cl)c(Cl)c3)c(F)c2)CC1 [CHF 5074, 1-(3′,4′-dichloro-2-fluorobiphenyl-4-yl)cyclopropanecarboxylic acid]	–	nearly completely abolished	nearly completely shifted to that of unbound tafamidis	nearly completely abolished	higher binding affinity to TTR as compared to trans-resveratrol	~75	inhibitory effects similar to those observed with wild-type TTR	~92	–
O=C(O)c1cc(-c2ccc(F)cc2F)ccc1O [diflunisal, reference compound]	–	–	–	–	–	~75	inhibitory effects similar to those observed with wild-type TTR	~92	–
Oc1ccc(/C=C/c2cc(O)cc(O)c2)cc1 [trans-resveratrol, reference compound]	high binding affinity, greater than that of thyroxine	–	–	–	–	–	–	–	fluorescence emission of TTR-bound diflunisal exposed to equimolar compound ([2]; 10 μM TTR-bound diflunisal, equimolar compound, excitation 340 nm, pH 7.2): a spectrum similar to that of TTR-bound trans-resveratrol rather than to that of TTR-bound diflunisal was obtained
O=C(O)c1ccc2nc(-c3cc(Cl)cc(Cl)c3)oc2c1 [tafamidis, 2-(3,5-dichlorophenyl)-1,3-benzoxazole-6-carboxylic acid, reference compound]	–	–	–	–	–	~75	inhibitory effects similar to those observed with wild-type TTR	~92	–
CC(C)(C(=O)O)c1ccc(-c2cc(Cl)cc(Cl)c2)c(F)c1 [CHF 4795, 2-methyl-(3′,5′-dichloro-2-fluoro-biphenyl-4-yl) propionic acid]	–	nearly completely abolished	nearly completely shifted to that of unbound tafamidis	nearly completely abolished	higher binding affinity to TTR as compared to trans-resveratrol	–	inhibitory effects similar to those observed with wild-type TTR	–	inhibitory effect on wild-type TTR fibrillogenesis [3]: about 75%; inhibitory effect on V 122I TTR fibrillogenesis [5]: about 92%
